Patent US11517591B2, “Immunogenic peptides specific to BCMA and TACI antigens” (Dana-Farber Cancer Institute, Inc., priority 2017, dated 2022)

What was measured:
[1] = test system: CD3+ T cells obtained from HLA-A2+ donors; assay: Induction and phenotypic analysis of peptide-specific CTL by repeated peptide stimulation; assay type: cell-based, human
Protocol: The peptide-specific CTL were generated from different HLA-A2^+ normal donors for the evaluation of the functional activities targeting MM cell lines. To generate the peptide-specific CTL, mature dendritic cells (mDC) generated from the same donor were resuspended in serum-free AIM-V media and pulsed with 50 μg/ml of the Heteroclitic #4 BCMA72-80 (YLMFLLRKI (SEQ ID NO: 13)) peptide or “Heteroclitic #3 TACI154-162 (YLSADQVAL (SEQ ID NO: 16))” peptide, overnight at 37° C., 5% CO2 in humidified air. The peptide-pulsed mDC were washed, counted, irradiated at 10 Gy and used to prime CD3^+ T cells at a 1:20 antigen-presenting cells/peptide-to-CD3^+ T cell ratio in AIM-V media supplemented with 10% human AB serum. […] To maintain the T cells ex vivo, IL-2 (50 U/ml) was added to the cultures two days after the second stimulation. Control T cell cultures were maintained under the same culture conditions in the presence of IL-2 (50 U/ml), but without peptide stimulation. Phenotype of the resulting CTL was evaluated one week after each cycle of peptide stimulation. […] The BCMA peptide-specific CTL cultures contained a higher percentage of CD8^+ T cells (˜80%) upon 4 cycle of peptide stimulation compared to non-peptide stimulated control T cells (˜20%) (FIGS. 8A-8C).
Antigen-specific CTL can be phenotypically identified as activated/memory T cells from naïve T cells by their expression of distinct cell surface antigens. The phenotype of the BCMA-CTL were examined as potential effector cells by analyzing the phenotype of naïve and memory cells. BCMA peptide-specific CTL were generated by repeated stimulation of HLA-A2^+ normal donor's CD3^+ T cells weekly with antigen-presenting cells pulsed with 50 μg/ml heteroclitic BCMA72-80 (YLMFLLRKI (SEQ ID NO: 13)). One week after each peptide stimulation, the resulting CTL were evaluated for their phenotypic profile by flow cytometry.
BCMA peptide-specific CTL (BCMA-CTL) were generated ex vivo by repeated stimulation of CD3^+ T cells obtained from HLA-A2^+ donors with peptide-pulsed antigen-presenting cells (APC). In brief, peptide (50 μg/ml)-pulsed APC were irradiated (10 Gy) and used to stimulate T cells at a 1 APC/peptide: 20 T cell ratio. The T cell cultures were restimulated every 7 days and maintained in AIM-V medium supplemented with 10% human AB serum (BioWhittaker) in the presence of IL-2 (50 units/ml).
Phenotypic characterization was performed on BCMA-CTL after staining with Live/Dead Aqua stain kit and fluorochrome conjugated anti-human mAbs and Tetramer-PE. Alternatively, the MM and breast cancer cell lines were stained with fluorochrome-conjugated BCMA or HLA-A2 mAb. After staining, the cells were washed, fixed in 2% paraformaldehyde, and analyzed by flow cytometry.
TACI peptide-specific CTL (TACI-CTL) were generated ex vivo by repeated stimulation of enriched CD3^+ T cells obtained from HLA-A2^+ donors with peptide-pulsed antigen-presenting cells (APC). In brief, peptide (50 μg/ml)-pulsed APC were irradiated (10 Gy) and used to stimulate T cells at a 1:20 APC/peptide-to-T cell ratio. The T cell cultures were restimulated every 7 days and maintained in AIM-V medium supplemented with 10% human AB serum (BioWhittaker) in the presence of IL-2 (50 units/ml).
Phenotypic characterization was performed on the MM target cells to conform TACI expression. Phenotypic characterization was performed on the TACI-CTL after staining with Live/Dead Aqua stain kit and fluorochrome conjugated anti-human mAbs. After staining, the cells were washed, fixed in 2% paraformaldehyde, and analyzed by flow cytometry.

[2] = test system: peripheral blood mononuclear cells from HLA-A2+ normal donors; assay: Generation and phenotypic characterization of BCMA-CTL stimulated with free or nanoparticle-encapsulated BCMA peptide; assay type: cell-based, human
Protocol: BCMA peptide-specific CTL (BCMA-CTL) were generated ex vivo by repeated stimulation of peripheral blood mononuclear cells isolated from HLA-A2^+ normal donors' with (1) HLA-A2 specific BCMA immunogenic peptide (50 ug/ml), (2) a blank nanoparticle (PLGA or liposome) without peptide, or (3) the BCMA peptide (50 ug/ml) encapsulated nanoparticle (PLGA/peptide or liposome/peptide). PBMC were cultured in DMEM medium supplemented with 10% human AB serum (BioWhittaker) and pulsed weekly with the appropriate BCMA peptide for a total of 4 or 5 cycles. IL-2 (50 U/ml) was added to the T cell cultures two days after the second stimulation.
BCMA peptide-specific CD8^+ CTL were evaluated for Naïve: Memory cell development and expression of CD28 co-stimulatory molecule by flow cytometry. In addition, BCMA peptide-specific CD8^+ CTL were assessed within the cultures by staining with BCMA peptide-specific Tetramer-PE. Following tetramer staining at 37° C. for 30 min, cells were washed and stained with CD8-FITC and CD28-APC mAbs. After staining, cells were washed, fixed in 2% paraformaldehyde, acquired using a LSRII Fortessa™ flow cytometer, and analyzed using FACS DIVA™ v8.0 (BD) or FlowJo v10.0.7 (Tree star, Ashland, Oreg.) software. BCMA-CTL were analyzed for the presence\frequency of specific memory (central memory, effector memory)/non-memory populations within the total gated CD3^+CD8^+ T cell population.

[3] = Donor 1, after 2 cycles of peptide stimulation
[4] = Donor 1, after 4 cycles of stimulation
[5] = Donor 1, upon 4 cycles of stimulation
[6] = Donor 2, after 2 cycles of peptide stimulation
[7] = Donor 2, after 4 cycles of stimulation
[8] = Donor 2, upon 4 cycles of stimulation
[9] = after the 5-cycle of peptide stimulation

“YLMFLLRKI [heteroclitic BCMA72-80, heteroclitic BCMA peptide]” was tested, and the “Naïve (CD45RO-CCR7+) within CD8+ T cells” value [1, 3] was 37.4%, the “central memory (CM; CD45RO+CCR7+) within CD8+ T cells” value [1, 3] was 32.1% and the “central memory (CM) within CD8+ T cells” value [1, 4] was 44.2%. For the same sequence, the “effector memory (EM; CD45RO+CCR7-) within CD8+ T cells” value [1, 4] was 54.6%, the “frequency of memory CD3+CD8+ T cells” value [1, 5] was 86% and the “frequency of naive CD3+CD8+ T cells” value [1, 5] was 2%. The “Naïve (CD45RO-CCR7+) within CD8+ T cells” value [1, 6] was 19.0%, the “central memory (CM) within CD8+ T cells” value [1, 6] was 49.6% and the “central memory (CM) within CD8+ T cells” value [1, 7] was 18.3%. The “effector memory (EM) within CD8+ T cells” value [1, 7] was 77.6%, the “frequency of memory CD3+CD8+ T cells” value [1, 8] was 92% and the “frequency of naive CD3+CD8+ T cells” value [1, 8] was 2%. The “frequency of effector memory (CD45RO+/CCR7-) CD3+CD8+ T cells” value ([1]; after 4 cycles of peptide stimulation) was “increased”, the “percentage of CD8+ T cells in peptide-specific CTL cultures” value ([1]; upon 4 cycle of peptide stimulation, 50 μg/ml) was ~80% and the “total CD45RO+ memory CTL” value ([2]; 3′ stimulation) was 15.3%. For the same sequence, the “total CD45RO+ memory CTL” value ([2]; 4′ stimulation) was 19.5%, the “total CD45RO+ memory CTL” value ([2]; 5′ stimulation) was 79.0% and the “central memory (CM) CD8+ T cell subset” value ([2]; after 1 cycle of stimulation) was 2.9%. The “effector memory (EM) CD8+ T cell subset” value ([2]; after 1 cycle of stimulation) was 5.7%, the “central memory (CM) CD8+ T cell subset” value ([2]; after 3 cycles of stimulation) was 12.4% and the “effector memory (EM) CD8+ T cell subset” value ([2]; after 3 cycles of stimulation) was 11.0%. For the same sequence, the “central memory (CM) CD8+ T cell subset” value [2, 9] was 3.5% and the “effector memory (EM) CD8+ T cell subset” value [2, 9] was 95.4%.
